Results reported in patent publication US20260125440A1, “INCRETIN ANALOGS AND USES THEREOF” (ELI LILLY AND COMPANY, priority 2019, published 2026).
Where two headings read alike, the source gives them in different places. Numbered stars: 1 amine (or outer) side, 2 acyl side, 3 side chain; on linkers, the order of the positions; unused ones are H or OH. Square brackets hold non-standard residues; d marks the D form. Side chains are listed from the residue outwards. Peptide text beside a SMILES is read from it. * marks the point of attachment. ξ: configuration not given here. C20 diacid = O=C(O)CCCCCCCCCCCCCCCCCCC(=O)*; αMePhe(2-F) = C[C@](N)(Cc1ccccc1F)C(=O)O; γGlu = O=C(O)[C@H](CCC(=O)[*:2])N[*:1]; αMeY = C[C@](N)(Cc1ccc(O)cc1)C(=O)O; 4Pal = N[C@@H](Cc1ccncc1)C(=O)O; αMeL = CC(C)C[C@](C)(N)C(=O)O; Orn = NCCC[C@H](N)C(=O)O; ξIva = CCC(C)(N)C(=O)O; AEEA = NCCOCCOCC(=O)O; Aib = CC(C)(N)C(=O)O

Legend:
[1] = Pharmacokinetics in male diet-induced obese (DIO) mice; format: in vivo; details: mouse, single 200 nmol/kg SQ dose, plasma; for half-life: read-out: t½ (converted)
Protocol: Methods: Male DIO mice are administered a single SQ dose of 200 nmol/kg (0.98 mg/kg) of Example compounds in 40 mM Tris-HCL pH8 buffer with 0.02% PS80 at a volume of 10 mL/kg. […] Plasma concentration of Example compounds are determined by a qualified Liquid Chromatography Mass Spectrometry (LC/MS) method at Q Squared Solutions BioSciences LLC (Ithaca, NY). The Example compounds and an internal standard are extracted from 100% mouse plasma using protein precipitation followed by solid phase extraction. The intact mass of the Example compounds, which includes peptide plus acyl chain, are detected by a Q-Exactive™ Orbitrap® mass spectrometer.

hGIPR = target: T1, hGIPR (Homo sapiens, UniProt P48546); experiment: Functional cAMP assay in HEK-293 cells expressing hGIPR; format: cell-based; details: percent of maximal response to GIP(1-42)NH2
T1 construct: expressed in transfected cells; host or cells: HEK-293 clonal cell line
T1 sequence (P48546 22-466): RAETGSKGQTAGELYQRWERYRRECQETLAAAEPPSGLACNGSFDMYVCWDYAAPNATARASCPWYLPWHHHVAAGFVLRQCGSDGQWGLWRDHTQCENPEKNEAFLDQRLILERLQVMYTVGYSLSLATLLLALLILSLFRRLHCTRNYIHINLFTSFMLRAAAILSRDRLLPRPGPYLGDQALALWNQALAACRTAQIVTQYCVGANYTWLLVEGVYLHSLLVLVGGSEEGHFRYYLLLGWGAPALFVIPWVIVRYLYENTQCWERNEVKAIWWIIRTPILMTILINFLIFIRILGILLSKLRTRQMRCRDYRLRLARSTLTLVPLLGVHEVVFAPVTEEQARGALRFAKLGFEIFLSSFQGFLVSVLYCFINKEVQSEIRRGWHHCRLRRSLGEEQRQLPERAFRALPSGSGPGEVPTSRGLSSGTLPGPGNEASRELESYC
Protocol: (§1) Experiments also are performed under identical assay conditions with the addition of 1.0% fatty acid free, globulin free human serum albumin (Sigma Cat #A3782).
(§2) After a 30-min incubation at 37° C., the resulting increase in intracellular cAMP is quantitatively determined using a CisBio cAMP Dynamic 2 HTRF Assay Kit (62AM4PEJ). Briefly, cAMP levels within the cell are detected by adding the cAMP-d2 conjugate in cell lysis buffer (10 μL) followed by the antibody anti-cAMP-Eu^3+-Cryptate, also in cell lysis buffer (10 μL). The resulting competitive assay is incubated for at least 60 min at room temperature, and then is detected using a PerkinElmer Envision® instrument with excitation at 320 nm and emission at 665 nm and 620 nm. Envision units (emission at 665 nm/620 nm*10,000) are inversely proportional to the amount of cAMP present and are converted to nM cAMP per well using a cAMP standard curve. […] A relative EC50 value and percent top (Emax) are derived by non-linear regression analysis using the percent maximal response vs. the concentration of peptide added, fitted to a four-parameter logistic equation.

hGLP-1R = target: T2, hGLP-1R (Homo sapiens, UniProt P43220); experiment: Functional cAMP assay in HEK-293 cells expressing hGLP-1R; format: cell-based; details: percent of maximal response to GLP-1(7-36)NH2
T2 construct: expressed in transfected cells; host or cells: HEK-293 clonal cell line
T2 sequence (P43220 24-463): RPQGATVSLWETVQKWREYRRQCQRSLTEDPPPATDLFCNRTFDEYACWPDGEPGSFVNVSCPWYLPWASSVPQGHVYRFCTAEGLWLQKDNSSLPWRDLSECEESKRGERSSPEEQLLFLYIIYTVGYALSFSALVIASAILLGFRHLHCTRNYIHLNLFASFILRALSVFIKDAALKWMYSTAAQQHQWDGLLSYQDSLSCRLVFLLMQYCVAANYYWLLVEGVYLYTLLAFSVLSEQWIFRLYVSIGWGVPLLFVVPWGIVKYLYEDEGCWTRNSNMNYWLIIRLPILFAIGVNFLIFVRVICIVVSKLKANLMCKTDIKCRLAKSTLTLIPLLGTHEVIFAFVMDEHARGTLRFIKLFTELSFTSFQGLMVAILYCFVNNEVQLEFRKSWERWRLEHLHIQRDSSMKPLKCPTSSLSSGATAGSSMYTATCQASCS
Protocol: as §1, §2

Compound | AUC(0-inf) ([1]; in vivo) [µM·h] | CL/F ([1]; in vivo) [mL/h/kg] | Cmax ([1]; in vivo) [nM] | Tmax ([1]; in vivo) [h] | half-life ([1]; in vivo) [h] | Emax (hGIPR; HEK293, read-out: hGIPR Emax, 0.1% bovine casein and 1.0% human serum albumin) [%] | Emax (hGIPR; HEK293, read-out: hGIPR Emax, 0.1% bovine casein) [%] | Emax (hGLP-1R; HEK293, read-out: hGLP-1R Emax, 0.1% bovine casein and 1.0% human serum albumin) [%] | Emax (hGLP-1R; HEK293, read-out: hGLP-1R Emax, 0.1% bovine casein) [%] | AUC(0-inf) ([1]; subcutaneous) [µM·h] | CL/F ([1]; subcutaneous) [mL/h/kg] | Cmax ([1]; subcutaneous) [nM] | Tmax ([1]; subcutaneous) [h] | half-life ([1]; subcutaneous) [h] | Emax (hGIPR; HEK293, 0.1% bovine casein and 1.0% human serum albumin, read-out: hGIPR Emax) [%] | Emax (hGIPR; HEK293, 0.1% bovine casein, read-out: hGIPR Emax) [%]
CC[C@H](C)[C@H](NC(=O)[C@H](Cc1ccccc1)NC(=O)[C@H](C)NC(=O)[C@H](Cc1ccncc1)NC(=O)[C@H](CCC(N)=O)NC(=O)[C@H](C)NC(=O)[C@H](CCCCNC(=O)COCCOCCNC(=O)CC[C@H](NC(=O)CCCCCCCCCCCCCCCCCCC(=O)O)C(=O)O)NC(=O)[C@H](CCCN)NC(=O)[C@H](CC(=O)O)NC(=O)[C@H](CC(C)C)NC(=O)[C@H](CC(C)C)NC(=O)[C@@H](NC(=O)[C@H](CO)NC(=O)[C@H](Cc1ccc(O)cc1)NC(=O)[C@H](CC(=O)O)NC(=O)[C@H](CO)NC(=O)[C@@H](NC(=O)[C@](C)(Cc1ccccc1F)NC(=O)[C@@H](NC(=O)CNC(=O)[C@H](CCC(N)=O)NC(=O)C(C)(C)NC(=O)[C@@H](N)Cc1ccc(O)cc1)[C@@H](C)O)[C@@H](C)O)[C@@H](C)CC)C(=O)N[C@@H](CCC(=O)O)C(=O)N[C@@H](Cc1ccc(O)cc1)C(=O)N[C@@H](CC(C)C)C(=O)N[C@@H](CC(C)C)C(=O)N[C@@H](CCC(=O)O)C(=O)NCC(=O)NCC(=O)N1CCC[C@H]1C(=O)N[C@@H](CO)C(=O)N[C@@H](CO)C(=O)NCC(=O)N[C@@H](CCC(=O)O)C(=O)N1CCC[C@H]1C(=O)N1CCC[C@H]1C(=O)N1CCC[C@H]1C(=O)N[C@@H](CCC(=O)O)C(N)=O [Example 1] (H-Y[Aib]QGT[αMePhe(2-F)]TSDYSILLD[Orn]K([AEEA-γGlu-C20 diacid])AQ[4Pal]AFIEYLLEGGPSSGEPPPE-NH2) | 55.6 | 3.6 | 817 | 12 | 38 | 100 ± 3 | 102 ± 2 | 102 ± 4 | 106 ± 4 |  |  |  |  |  |  | 
CC[C@H](C)[C@H](NC(=O)[C@H](Cc1ccccc1)NC(=O)[C@H](C)NC(=O)C(C)(CC)NC(=O)[C@H](CCC(N)=O)NC(=O)[C@H](C)NC(=O)[C@H](CCCCNC(=O)COCCOCCNC(=O)CC[C@H](NC(=O)CCCCCCCCCCCCCCCCCCC(=O)O)C(=O)O)NC(=O)[C@H](CCCN)NC(=O)[C@H](CC(=O)O)NC(=O)[C@H](CC(C)C)NC(=O)[C@](C)(CC(C)C)NC(=O)[C@@H](NC(=O)[C@H](CO)NC(=O)[C@H](Cc1ccc(O)cc1)NC(=O)[C@H](CC(=O)O)NC(=O)[C@H](CO)NC(=O)[C@@H](NC(=O)[C@](C)(Cc1ccccc1F)NC(=O)[C@@H](NC(=O)CNC(=O)[C@H](CCC(N)=O)NC(=O)C(C)(C)NC(=O)[C@@H](N)Cc1ccc(O)cc1)[C@@H](C)O)[C@@H](C)O)[C@@H](C)CC)C(=O)N[C@@H](CCC(=O)O)C(=O)N[C@@](C)(Cc1ccc(O)cc1)C(=O)N[C@@H](CC(C)C)C(=O)N[C@@H](CC(C)C)C(=O)N[C@@H](CCC(=O)O)C(=O)NCC(=O)NCC(=O)N1CCC[C@H]1C(=O)N[C@@H](CO)C(=O)N[C@@H](CO)C(=O)NCC(=O)N[C@@H](CCC(=O)O)C(=O)N1CCC[C@H]1C(=O)N1CCC[C@H]1C(=O)N1CCC[C@H]1C(=O)N[C@@H](CO)C(N)=O (stereo partly shown) [Example 2] (H-Y[Aib]QGT[αMePhe(2-F)]TSDYSI[αMeL]LD[Orn]K([AEEA-γGlu-C20 diacid])AQ[ξIva]AFIE[αMeY]LLEGGPSSGEPPPS-NH2; N-terminus assumed) |  |  |  |  |  |  |  |  |  | 42.5 | 4.7 | 1240 | 12 | 18 | 99 ± 2 | 101 ± 2
